SMILES strings stand for the structures.

This assay concerns the target ATX (human His-tagged) (Homo sapiens (Human), UniProt Q13822). Description: Human ATX enzyme inhibition assay (fluorescence quenching, MR121 substrate). To be noted: 30 nM ATX, 1 μM MR121 substrate, 30° C., pH 8.0. The format is biochemical. The procedure, abridged: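 Tris-HCl buffer at pH 8.0 contained 140 mM NaCl, 5 mM KCl, 1 mM each CaCl2 and MgCl2, and 0.01% Triton X-100. The MR121 substrate (1 μM final) was incubated with enzyme for 15 min at 30 °C, and activity was read by fluorescence quenching.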
By IC50 is commonly meant the concentration that inhibits the measured activity by half. A higher IC50 goes with lower potency. With `COc1cc(Cl)cc(COC(=O)N2C[C@@H]3CN(C(=O)c4ccc5[nH]nnc5c4)C[C@@H]3C2)c1` [Example 4.30, (3aR,6aS)-3-chloro-5-methoxybenzyl 5-(1H-benzo[d][1,2,3]triazole-5-carbonyl)hexahydropyrrolo[3,4-c]pyrrole-2(1H)-carboxylate], the IC50 was 50 nM.

In turn, `CC1C(COC(=O)N2C[C@@H]3CN(C(=O)c4ccc5[nH]nnc5c4)C[C@@H]3C2)[C@H]2CC[C@@H]1C2` (stereo partly drawn) [Example 4.31, (3aS,6aR)-5-(1H-benzotriazole-5-carbonyl)-hexahydro-pyrrolo[3,4-c]pyrrole-2-carboxylic acid (1S,4R)-3-methyl-bicyclo[2.2.1]hept-2-ylmethyl ester] showed a concentration for half-maximal inhibition (IC50) of 1820 nM.

With `O=C(OCC1C[C@H]2CC[C@@H]1C2)N1C[C@@H]2CN(C(=O)c3ccc4[nH]nnc4c3)C[C@@H]2C1` (stereo partly drawn) [Example 4.32, (3aS,6aR)-5-(1H-benzotriazole-5-carbonyl)-hexahydro-pyrrolo[3,4-c]pyrrole-2-carboxylic acid (1R,4S)-1-bicyclo[2.2.1]hept-2-ylmethyl ester], the midpoint of inhibition, the IC50, lay at 3850 nM.

As for `O=C(NCc1cnn[nH]1)[C@H]1C[C@@H]2CN(C(=O)OCc3cc(Cl)cc(Cl)c3)C[C@@H]2C1` [Example 4.33, (3aR,5s,6aS)-5-[(3H-[1,2,3]triazol-4-ylmethyl)-carbamoyl]-hexahydro-cyclopenta[c]pyrrole-2-carboxylic acid 3,5-dichloro-benzyl ester], the IC50 was determined as 36 nM. This IC50 lies about 110-fold lower than the previous one.

In the case of `CS(=O)(=O)c1cc(Cl)cc(COC(=O)N2C[C@@H]3CN(C(=O)N4CCc5[nH]nnc5C4)C[C@H]3C2)c1` [Example 4.34, (3aS,6aS)-5-(1,4,6,7-tetrahydro-[1,2,3]triazolo[4,5-c]pyridine-5-carbonyl)-hexahydro-pyrrolo[3,4-c]pyrrole-2-carboxylic acid 3-chloro-5-methanesulfonyl-benzyl ester], the IC50 is 19 nM.

Compound `O=C(OCc1ccc(OC(F)(F)C(F)F)cc1)N1C[C@@H]2CN(C(=O)c3ccc4[nH]nnc4c3)C[C@H]2C1` [Example 4.38, (3aS,6aS)-5-(1H-benzotriazole-5-carbonyl)-hexahydro-pyrrolo[3,4-c]pyrrole-2-carboxylic acid 4-(1,1,2,2-tetrafluoro-ethoxy)-benzyl ester] registered an IC50 of 24 nM. This IC50 and that of the compound before are within 1.5-fold of each other.

In turn, `O=C(OCc1ccc(OC(F)F)c(F)c1)N1C[C@@H]2CN(C(=O)c3ccc4[nH]nnc4c3)C[C@H]2C1` [Example 4.39, (3aS,6aS)-5-(1H-benzotriazole-5-carbonyl)-hexahydro-pyrrolo[3,4-c]pyrrole-2-carboxylic acid 4-difluoromethoxy-3-fluoro-benzyl ester] showed an IC50 of 6 nM.

In turn, `O=C(OCc1ccc(OC(F)(F)F)c(F)c1)N1C[C@@H]2CN(C(=O)c3ccc4[nH]nnc4n3)C[C@H]2C1` [Example 4.40, (3aS,6aS)-5-(1H-[1,2,3]triazolo[4,5-b]pyridine-5-carbonyl)-hexahydro-pyrrolo[3,4-c]pyrrole-2-carboxylic acid 3-fluoro-4-trifluoromethoxy-benzyl ester] came in with an IC50 of 16 nM. Compared with the last compound, the IC50 is about 2.7-fold higher.

Consider `O=C(OCc1ccc(OC(F)F)cc1)N1C[C@@H]2CN(C(=O)c3ccc4[nH]nnc4c3)C[C@H]2C1` [Example 4.41, (3aS,6aS)-5-(1H-benzotriazole-5-carbonyl)-hexahydro-pyrrolo[3,4-c]pyrrole-2-carboxylic acid 4-difluoromethoxy-benzyl ester], for which the IC50 stood at 9 nM.

`O=C(OCc1ccc(OC(F)(F)F)cc1)N1C[C@@H]2CN(C(=O)c3ccc4[nH]nnc4n3)C[C@H]2C1` [Example 4.42, (3aS,6aS)-5-(1H-[1,2,3]triazolo[4,5-b]pyridine-5-carbonyl)-hexahydro-pyrrolo[3,4-c]pyrrole-2-carboxylic acid 4-trifluoromethoxy-benzyl ester] gave a half-inhibitory concentration (IC50) of 24 nM.

The values are drawn from US10669268B2, “Bicyclic derivatives” (Hoffmann-La Roche Inc., priority 2012, dated 2020).
